Legend:
[1] = system: B. subtilis 168; assay: Bliss interaction score (quartile over a dose matrix) (fitness difference); higher = more antagonism (negative = synergy)
Outline: (§1)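 Growth in each well was taken as OD595 at entry into stationary phase. Dividing by the plate's robust no-drug mean and capping at 1 gave fitness, and single-drug fitness was inferred from the combination data. The Bliss score, observed minus product-expected fitness, is summarised by quartiles over technical, biological and donor/recipient replicates.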

[2] = system: S. aureus Newman; assay: as above
Outline: as §1

[3] = system: S. pneumoniae D39V; assay: as above
Outline: as §1

[4] = system: S. aureus DSM 20231; assay: as above
Outline: as §1

[5] = system: S. aureus Newman; assay: fitness (endpoint OD595 vs no drug) (fraction); higher = more growth
Outline: (§2)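 Fitness expresses the optical density reached at the stationary-phase transition as a fraction of the robust mean of no-drug control wells. It is capped at 1. Measurements were OD595 every 30 min for 14 h at 37 °C after inoculation of 384-well plates at OD595 0.01 (30 µl, or 55 µl for S. pneumoniae), minus the first reading.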

[6] = system: S. pneumoniae D39V; assay: as above
Outline: as §2

[7] = system: S. aureus DSM 20231; assay: as above
Outline: as §2
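For Bliss interaction score (quartile over a dose matrix) in this document: first quartile when negative (synergy) and third quartile when positive (antagonism).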

CO/N=C(\C(=O)N[C@@H]1C(=O)N2C(C(=O)[O-])=C(C[N+]3(C)CCCC3)CS[C@H]12)c1csc(N)n1 [Cefepime] + CN[C@H](CC(C)C)C(=O)N[C@H]1C(=O)N[C@@H](CC(N)=O)C(=O)N[C@H]2C(=O)N[C@H]3C(=O)N[C@H](C(=O)N[C@H](C(=O)O)c4cc(O)cc(O)c4-c4cc3ccc4O)[C@H](O)c3ccc(c(Cl)c3)Oc3cc2cc(c3O[C@@H]2O[C@H](CO)[C@@H](O)[C@H](O)[C@H]2O[C@H]2C[C@](C)(N)[C@H](O)[C@H](C)O2)Oc2ccc(cc2Cl)[C@H]1O [Vancomycin]
Settings | Bliss interaction score
[1] | -0.154
[2] | -0.0634
[3] | -0.121
[4] | 0.0422

Settings | fitness
[5], first compound 0.125 µg/mL, partner 0.1875 µg/mL | 0.945
[5], first compound 0.125 µg/mL, partner 0.375 µg/mL | 0.946
[5], first compound 0.125 µg/mL, partner 0.75 µg/mL | 0.922
[5], first compound 0.25 µg/mL, partner 0.1875 µg/mL | 0.879
[5], first compound 0.25 µg/mL, partner 0.375 µg/mL | 0.867
[5], first compound 0.25 µg/mL, partner 0.75 µg/mL | 0.858
[5], first compound 0.5 µg/mL, partner 0.1875 µg/mL | 0.791
[5], first compound 0.5 µg/mL, partner 0.375 µg/mL | 0.802
[5], first compound 0.5 µg/mL, partner 0.75 µg/mL | 0.774
[6], first compound 0.007 µg/mL, partner 0.125 µg/mL | 0.992
[6], first compound 0.007 µg/mL, partner 0.25 µg/mL | 0.807
[6], first compound 0.007 µg/mL, partner 0.5 µg/mL | 0.0222
[6], first compound 0.0078 µg/mL, partner 0.03125 µg/mL | 0.977
[6], first compound 0.0078 µg/mL, partner 0.0625 µg/mL | 0.884
[6], first compound 0.0078 µg/mL, partner 0.125 µg/mL | 0.694
[6], first compound 0.014 µg/mL, partner 0.125 µg/mL | 0.944
[6], first compound 0.014 µg/mL, partner 0.5 µg/mL | 0.029
[6], first compound 0.0155 µg/mL, partner 0.03125 µg/mL | 0.879
[6], first compound 0.028 µg/mL, partner 0.125 µg/mL | 0.585
[6], first compound 0.028 µg/mL, partner 0.5 µg/mL | 0.0343
[6], first compound 0.031 µg/mL, partner 0.0625 µg/mL | 0.308
[6], first compound 0.031 µg/mL, partner 0.125 µg/mL | 0.269
[7], first compound 0.125 µg/mL, partner 0.1875 µg/mL | 0.872
[7], first compound 0.125 µg/mL, partner 0.375 µg/mL | 0.868
[7], first compound 0.125 µg/mL, partner 0.75 µg/mL | 0.936
[7], first compound 0.25 µg/mL, partner 0.1875 µg/mL | 0.917
[7], first compound 0.25 µg/mL, partner 0.375 µg/mL | 0.902
[7], first compound 0.25 µg/mL, partner 0.75 µg/mL | 0.885
[7], first compound 0.5 µg/mL, partner 0.1875 µg/mL | 0.883
[7], first compound 0.5 µg/mL, partner 0.375 µg/mL | 0.864
[7], first compound 0.5 µg/mL, partner 0.75 µg/mL | 0.906

CC1(C)S[C@@H]2[C@H](NC(=O)[C@H](N)c3ccc(O)cc3)C(=O)N2[C@H]1C(=O)O [Amoxicillin] + COc1c(N2C[C@@H]3CCCN[C@@H]3C2)c(F)cc2c(=O)c(C(=O)O)cn(C3CC3)c12 [Moxifloxacin]
Settings | Bliss interaction score
[1] | 0.0481
[2] | 0.046
[3] | 0.0639
[4] | -0.0301

Settings | fitness
[5], first compound 0.0625 µg/mL, partner 0.0075 µg/mL | 0.715
[5], first compound 0.0625 µg/mL, partner 0.015 µg/mL | 0.609
[5], first compound 0.125 µg/mL, partner 0.0075 µg/mL | 0.705
[6], first compound 0.0008 µg/mL, partner 0.005 µg/mL | 0.968
[6], first compound 0.0008 µg/mL, partner 0.01 µg/mL | 0.977
[6], first compound 0.0008 µg/mL, partner 0.02 µg/mL | 0.913
[6], first compound 0.0015 µg/mL, partner 0.005 µg/mL | 0.972
[6], first compound 0.0015 µg/mL, partner 0.01 µg/mL | 0.967
[6], first compound 0.0015 µg/mL, partner 0.02 µg/mL | 0.905
[6], first compound 0.0015 µg/mL, partner 0.0312 µg/mL | 0.314
[6], first compound 0.0015 µg/mL, partner 0.0625 µg/mL | 0.147
[6], first compound 0.0015 µg/mL, partner 0.125 µg/mL | 0.0837
[6], first compound 0.003 µg/mL, partner 0.005 µg/mL | 0.92
[6], first compound 0.003 µg/mL, partner 0.01 µg/mL | 0.92
[6], first compound 0.003 µg/mL, partner 0.02 µg/mL | 0.901
[6], first compound 0.003 µg/mL, partner 0.0312 µg/mL | 0.277
[6], first compound 0.003 µg/mL, partner 0.0625 µg/mL | 0.211
[6], first compound 0.003 µg/mL, partner 0.125 µg/mL | 0.0689
[7], first compound 0.0625 µg/mL, partner 0.0075 µg/mL | 0.51
[7], first compound 0.0625 µg/mL, partner 0.015 µg/mL | 0.482
[7], first compound 0.0625 µg/mL, partner 0.03 µg/mL | 0.403
[7], first compound 0.125 µg/mL, partner 0.0075 µg/mL | 0.382
[7], first compound 0.125 µg/mL, partner 0.015 µg/mL | 0.374
[7], first compound 0.125 µg/mL, partner 0.03 µg/mL | 0.203
[7], first compound 0.25 µg/mL, partner 0.0075 µg/mL | 0.152
[7], first compound 0.25 µg/mL, partner 0.015 µg/mL | 0.119
[7], first compound 0.25 µg/mL, partner 0.03 µg/mL | 0.034
[7], first compound 0.5 µg/mL, partner 0.0075 µg/mL | 0.0102
[7], first compound 0.5 µg/mL, partner 0.015 µg/mL | 0.0002
[7], first compound 0.5 µg/mL, partner 0.03 µg/mL | 0.0026

one replicate
Settings | fitness
[6], first compound 0.0008 µg/mL, partner 0.0312 µg/mL | 0.209
[6], first compound 0.0008 µg/mL, partner 0.0625 µg/mL | 0.167
[6], first compound 0.0008 µg/mL, partner 0.125 µg/mL | 0.103
[6], first compound 0.006 µg/mL, partner 0.0312 µg/mL | 0.0891
[6], first compound 0.006 µg/mL, partner 0.0625 µg/mL | 0.0684
[6], first compound 0.006 µg/mL, partner 0.125 µg/mL | 0.0138
[7], first compound 0.125 µg/mL, partner 0.06 µg/mL | 0.388
[7], first compound 0.125 µg/mL, partner 0.12 µg/mL | 0.0813
[7], first compound 0.25 µg/mL, partner 0.06 µg/mL | 0.112
[7], first compound 0.25 µg/mL, partner 0.12 µg/mL | 0.0126
[7], first compound 0.5 µg/mL, partner 0.06 µg/mL | 0.0085
[7], first compound 0.5 µg/mL, partner 0.12 µg/mL | 0.0156

CO/N=C(\C(=O)N[C@@H]1C(=O)N2C(C(=O)[O-])=C(C[N+]3(C)CCCC3)CS[C@H]12)c1csc(N)n1 [Cefepime] + C[C@@H]1O[C@@H]1P(=O)(O)O [Fosfomycin]
Settings | Bliss interaction score
[1] | -0.0571
[2] | 0.16
[3] | -0.0837
[4] | -0.0913

Settings | fitness
[5], first compound 0.125 µg/mL, partner 0.781 µg/mL | 0.691
[5], first compound 0.125 µg/mL, partner 1.562 µg/mL | 0.599
[5], first compound 0.125 µg/mL, partner 3.124 µg/mL | 0.301
[5], first compound 0.25 µg/mL, partner 0.781 µg/mL | 0.653
[5], first compound 0.25 µg/mL, partner 1.562 µg/mL | 0.587
[5], first compound 0.25 µg/mL, partner 3.124 µg/mL | 0.305
[5], first compound 0.5 µg/mL, partner 0.781 µg/mL | 0.659
[5], first compound 0.5 µg/mL, partner 1.562 µg/mL | 0.568
[5], first compound 0.5 µg/mL, partner 3.124 µg/mL | 0.276
[6], first compound 0.007 µg/mL, partner 1.25 µg/mL | 0.966
[6], first compound 0.007 µg/mL, partner 2.5 µg/mL | 0.911
[6], first compound 0.007 µg/mL, partner 5 µg/mL | 0.677
[6], first compound 0.0078 µg/mL, partner 1.25 µg/mL | 0.987
[6], first compound 0.0078 µg/mL, partner 2.5 µg/mL | 0.957
[6], first compound 0.0078 µg/mL, partner 5 µg/mL | 0.755
[6], first compound 0.014 µg/mL, partner 1.25 µg/mL | 0.984
[6], first compound 0.014 µg/mL, partner 2.5 µg/mL | 0.889
[6], first compound 0.014 µg/mL, partner 5 µg/mL | 0.62
[6], first compound 0.0155 µg/mL, partner 1.25 µg/mL | 0.962
[6], first compound 0.0155 µg/mL, partner 2.5 µg/mL | 0.932
[6], first compound 0.0155 µg/mL, partner 5 µg/mL | 0.633
[6], first compound 0.028 µg/mL, partner 1.25 µg/mL | 0.844
[6], first compound 0.028 µg/mL, partner 2.5 µg/mL | 0.707
[6], first compound 0.028 µg/mL, partner 5 µg/mL | 0.273
[6], first compound 0.031 µg/mL, partner 1.25 µg/mL | 0.789
[7], first compound 0.125 µg/mL, partner 0.781 µg/mL | 0.649
[7], first compound 0.125 µg/mL, partner 1.562 µg/mL | 0.503
[7], first compound 0.125 µg/mL, partner 3.124 µg/mL | 0.456
[7], first compound 0.25 µg/mL, partner 0.781 µg/mL | 0.633
[7], first compound 0.25 µg/mL, partner 1.562 µg/mL | 0.512
[7], first compound 0.25 µg/mL, partner 3.124 µg/mL | 0.488
[7], first compound 0.5 µg/mL, partner 0.781 µg/mL | 0.67
[7], first compound 0.5 µg/mL, partner 1.562 µg/mL | 0.559
[7], first compound 0.5 µg/mL, partner 3.124 µg/mL | 0.539

From the supplement of paper PMC10627819
